Data from PubChem BioAssay AID1918994 (Molecular Pharmacology Branch, DTP, NCI, 2023).

System: 292921-168-R-J2-PDC complex spheroid growth
Experiment: Anticancer human tumor 292921-168-R-J2-PDC patient-derived pancreatic carcinoma cell line growth inhibition [AhR]
Settings: for IC50: curve of first compound; for viability, T/C: stronger effect = lower value; active = viability on the fitted dose curve at most 10% of control; inactive = the rest
In short: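 Agents were dosed in half-log steps down from roughly clinical Cmax, or from 10 microM where Cmax was unknown, alone and with AhR antagonists. Read-out: percent test/control growth of tumor spheroids containing HUVEC and MSC stromal cells.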

[1] = second compound 0.1 µM, first compound 0.0316 µM
[2] = second compound 0.1 µM, first compound 0.1 µM
[3] = second compound 0.316 µM, first compound 0.0316 µM
[4] = second compound 0.316 µM, first compound 0.1 µM
[5] = second compound 1 µM, first compound 0.0316 µM
[6] = second compound 1 µM, first compound 0.1 µM
[7] = second compound 3.16 µM, first compound 0.0316 µM
[8] = second compound 3.16 µM, first compound 0.1 µM
[9] = second compound 10 µM, first compound 0.0316 µM
[10] = second compound 10 µM, first compound 0.1 µM
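Note: spheroids exposed to compounds for seven days after three days of growth.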

Cn1ncnc1C1c2n[nH]c(=O)c3cc(F)cc(c23)NC1c1ccc(F)cc1 (stereo not given) + Cc1ccccc1N=Nc1ccc(NC(=O)c2ccnn2C)c(C)c1
inactive: viability, T/C (second compound 0.1 µM, first compound 0.000316 µM) 96.1% | viability, T/C (second compound 0.1 µM, first compound 0.001 µM) 83% | viability, T/C (second compound 0.1 µM, first compound 0.00316 µM) 83.2% | viability, T/C (second compound 0.1 µM, first compound 0.01 µM) 85.7% | viability, T/C [1] 87.8% | viability, T/C [2] 82.6% | viability, T/C (second compound 0.316 µM, first compound 0.000316 µM) 90.9% | viability, T/C (second compound 0.316 µM, first compound 0.001 µM) 76.6% | viability, T/C (second compound 0.316 µM, first compound 0.00316 µM) 86.4% | viability, T/C (second compound 0.316 µM, first compound 0.01 µM) 74.8% | viability, T/C [3] 73.8% | viability, T/C [4] 86.2% | viability, T/C (second compound 1 µM, first compound 0.000316 µM) 78.6% | viability, T/C (second compound 1 µM, first compound 0.001 µM) 81% | viability, T/C (second compound 1 µM, first compound 0.00316 µM) 80.3% | viability, T/C (second compound 1 µM, first compound 0.01 µM) 81.3% | viability, T/C [5] 87.8% | viability, T/C [6] 74.1% | viability, T/C (second compound 3.16 µM, first compound 0.000316 µM) 80.9% | viability, T/C (second compound 3.16 µM, first compound 0.001 µM) 76.2% | viability, T/C (second compound 3.16 µM, first compound 0.00316 µM) 76.3% | viability, T/C (second compound 3.16 µM, first compound 0.01 µM) 75.1% | viability, T/C [7] 72.5% | viability, T/C [8] 59.6% | viability, T/C (second compound 10 µM, first compound 0.000316 µM) 64% | viability, T/C (second compound 10 µM, first compound 0.001 µM) 68.5% | viability, T/C (second compound 10 µM, first compound 0.00316 µM) 51.8% | viability, T/C (second compound 10 µM, first compound 0.01 µM) 61.7% | viability, T/C [9] 53.3% | viability, T/C [10] 52.8%
> 100 nM: IC50 (second compound 0.1 µM) | IC50 (second compound 0.316 µM) | IC50 (second compound 1 µM) | IC50 (second compound 3.16 µM) | IC50 (second compound 10 µM)

NS(=O)(=O)OCC1CC(n2ccc3c(NC4CCc5ccccc54)ncnc32)CC1O (stereo not given) + Cc1ccccc1N=Nc1ccc(NC(=O)c2ccnn2C)c(C)c1
189 nM: IC50 (second compound 0.1 µM)
inactive: viability, T/C [1] 122% | viability, T/C [2] 88.3% | viability, T/C (second compound 0.1 µM, first compound 0.316 µM) 19.3% | viability, T/C [3] 128% | viability, T/C [4] 77.9% | viability, T/C (second compound 0.316 µM, first compound 0.316 µM) 15.7% | viability, T/C [5] 111% | viability, T/C [6] 73.6% | viability, T/C (second compound 1 µM, first compound 0.316 µM) 16.2% | viability, T/C [7] 100% | viability, T/C [8] 64% | viability, T/C (second compound 3.16 µM, first compound 0.316 µM) 13.8% | viability, T/C [9] 88.9% | viability, T/C [10] 55.2% | viability, T/C (second compound 10 µM, first compound 0.316 µM) 13.7%
active: viability, T/C (second compound 0.1 µM, first compound 1 µM) 4.4% | viability, T/C (second compound 0.1 µM, first compound 3.16 µM) 3.09% | viability, T/C (second compound 0.1 µM, first compound 10 µM) 2.81% | viability, T/C (second compound 0.316 µM, first compound 1 µM) 4.5% | viability, T/C (second compound 0.316 µM, first compound 3.16 µM) 4.78% | viability, T/C (second compound 0.316 µM, first compound 10 µM) 3.59% | viability, T/C (second compound 1 µM, first compound 1 µM) 6.04% | viability, T/C (second compound 1 µM, first compound 3.16 µM) 3.96% | viability, T/C (second compound 1 µM, first compound 10 µM) 5.05% | viability, T/C (second compound 3.16 µM, first compound 1 µM) 4.58% | viability, T/C (second compound 3.16 µM, first compound 3.16 µM) 8.31% | viability, T/C (second compound 3.16 µM, first compound 10 µM) 2.91% | viability, T/C (second compound 10 µM, first compound 1 µM) 5.55% | viability, T/C (second compound 10 µM, first compound 3.16 µM) 3.67% | viability, T/C (second compound 10 µM, first compound 10 µM) 2.58%
161 nM: IC50 (second compound 1 µM)
138 nM: IC50 (second compound 3.16 µM)
168 nM: IC50 (second compound 0.316 µM)
115 nM: IC50 (second compound 10 µM)

Nc1ncn(C2CC(O)C(CO)S2)c(=O)n1 (stereo not given) + Cc1ccccc1N=Nc1ccc(NC(=O)c2ccnn2C)c(C)c1
> 300 nM: IC50 (second compound 0.1 µM) | IC50 (second compound 0.316 µM) | IC50 (second compound 1 µM) | IC50 (second compound 3.16 µM) | IC50 (second compound 10 µM)
inactive: viability, T/C (second compound 0.1 µM, first compound 0.000949 µM) 96.1% | viability, T/C (second compound 0.1 µM, first compound 0.003 µM) 91.2% | viability, T/C (second compound 0.1 µM, first compound 0.00949 µM) 86.3% | viability, T/C (second compound 0.1 µM, first compound 0.03 µM) 93% | viability, T/C (second compound 0.1 µM, first compound 0.0949 µM) 91.1% | viability, T/C (second compound 0.1 µM, first compound 0.3 µM) 77.5% | viability, T/C (second compound 0.316 µM, first compound 0.000949 µM) 87.6% | viability, T/C (second compound 0.316 µM, first compound 0.003 µM) 92.3% | viability, T/C (second compound 0.316 µM, first compound 0.00949 µM) 93.3% | viability, T/C (second compound 0.316 µM, first compound 0.03 µM) 81.5% | viability, T/C (second compound 0.316 µM, first compound 0.0949 µM) 82.6% | viability, T/C (second compound 0.316 µM, first compound 0.3 µM) 76.6% | viability, T/C (second compound 1 µM, first compound 0.000949 µM) 83.6% | viability, T/C (second compound 1 µM, first compound 0.003 µM) 85% | viability, T/C (second compound 1 µM, first compound 0.00949 µM) 80.7% | viability, T/C (second compound 1 µM, first compound 0.03 µM) 83.8% | viability, T/C (second compound 1 µM, first compound 0.0949 µM) 90% | viability, T/C (second compound 1 µM, first compound 0.3 µM) 78.5% | viability, T/C (second compound 3.16 µM, first compound 0.000949 µM) 68.6% | viability, T/C (second compound 3.16 µM, first compound 0.003 µM) 66.1% | viability, T/C (second compound 3.16 µM, first compound 0.00949 µM) 72.4% | viability, T/C (second compound 3.16 µM, first compound 0.03 µM) 79.9% | viability, T/C (second compound 3.16 µM, first compound 0.0949 µM) 82.2% | viability, T/C (second compound 3.16 µM, first compound 0.3 µM) 64.1% | viability, T/C (second compound 10 µM, first compound 0.000949 µM) 64% | viability, T/C (second compound 10 µM, first compound 0.003 µM) 56.1% | viability, T/C (second compound 10 µM, first compound 0.00949 µM) 59% | viability, T/C (second compound 10 µM, first compound 0.03 µM) 62.7% | viability, T/C (second compound 10 µM, first compound 0.0949 µM) 61.6% | viability, T/C (second compound 10 µM, first compound 0.3 µM) 57.1%
